Data taken from PubChem BioAssay AID434951 (Broad Institute, 2010).
Active and inactive are the calls of the source.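 How the source made its calls: active means a fitted half-maximal concentration EC50 for the rise in nuclear signal no higher than ten times the top dose tested; inconclusive means flat fit with activity between 30% and 70%, or unusable fit; inactive means EC50 beyond ten times the top dose.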

Molecular target: Hypoxia-inducible factor 1-alpha (Homo sapiens) (UniProt Q16665)
Assay: HIF pathway activation, GFP-HIF1alpha translocation – imaging, fluorescence, U2OS GFP-HIF1alpha, confirmation (AID 434951)
Details: U2OS GFP-HIF1alpha nuclear intensity, high-content imaging

Hypoxia-inducible factor 1-alpha (Homo sapiens), sequence (Q16665 whole entry, looked up): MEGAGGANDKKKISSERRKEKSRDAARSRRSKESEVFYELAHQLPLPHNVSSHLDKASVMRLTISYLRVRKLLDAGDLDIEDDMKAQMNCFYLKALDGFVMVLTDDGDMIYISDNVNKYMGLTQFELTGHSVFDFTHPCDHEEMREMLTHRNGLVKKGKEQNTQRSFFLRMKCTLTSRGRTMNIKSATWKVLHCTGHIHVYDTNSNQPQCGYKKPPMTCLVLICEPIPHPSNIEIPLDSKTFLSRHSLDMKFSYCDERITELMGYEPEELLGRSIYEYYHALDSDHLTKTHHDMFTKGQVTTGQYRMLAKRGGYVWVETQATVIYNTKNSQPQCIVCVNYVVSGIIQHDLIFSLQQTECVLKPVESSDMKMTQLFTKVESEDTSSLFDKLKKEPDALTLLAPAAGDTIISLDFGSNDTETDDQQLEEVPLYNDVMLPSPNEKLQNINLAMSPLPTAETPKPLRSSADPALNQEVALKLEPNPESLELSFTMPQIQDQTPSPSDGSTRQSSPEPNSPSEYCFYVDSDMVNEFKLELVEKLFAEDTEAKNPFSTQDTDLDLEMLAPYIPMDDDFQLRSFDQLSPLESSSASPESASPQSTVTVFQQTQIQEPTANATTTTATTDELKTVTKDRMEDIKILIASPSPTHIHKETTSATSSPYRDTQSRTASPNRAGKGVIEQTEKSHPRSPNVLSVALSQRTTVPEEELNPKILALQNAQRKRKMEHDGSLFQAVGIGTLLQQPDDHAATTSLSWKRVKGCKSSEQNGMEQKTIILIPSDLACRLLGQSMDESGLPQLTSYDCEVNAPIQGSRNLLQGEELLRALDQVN

Structure (SMILES) | EC50
COc1ccc(Cl)c(OC)c1C(=O)NC(=O)Nc1c(F)cc(F)cc1F | > 35 µM (inactive)
CCOC(=O)N1CCN(c2ccc(Cl)c(Cl)c2)CC1 | > 35 µM (inactive)
Cc1cc(C)nc(N/N=C/c2cc(Br)ccc2O)n1 | 8.31 µM
N#Cc1ccccc1OCCCN1CCC(Cc2ccccc2)CC1 | > 35 µM (inactive)
COc1ccc(NC(=O)CCC(=O)N(Cc2ccc(OC)c(OC)c2)c2nccs2)cc1 | > 35 µM (inactive)
CC12CC3(C)CC(C)(C1)CC(C(=O)NCCc1ccc(S(N)(=O)=O)cc1)(C2)C3 | > 35 µM (inactive)
COc1ccc(-c2nc(C#N)c(N3CCN(C(=O)c4ccco4)CC3)o2)cc1OC | > 35 µM (inactive)
O=C(CN1CCCc2ccccc21)N/N=C/c1c(O)ccc2ccccc12 | 36.5 µM
Cc1ccc2nc(N3CCN(C)CC3)[nH]c2c1 | > 35 µM (inactive)
CS(=O)(=O)c1ccc2nc(NC(=O)C3CC3)sc2c1 | > 35 µM (inactive)
CC(C)CC(=O)NC(c1cccs1)c1ccc2cccnc2c1O (stereo not given) | 6.26 µM
O=C(Nc1cccc(-c2cn3ccccc3n2)c1)C1CC1 | > 35 µM (inactive)
COc1cc(C2CC(=O)N3CN(Cc4ccccc4)CSC3=C2C#N)ccc1OCc1ccccc1 (stereo not given) | > 35 µM (inactive)
CC1=NN2C(=N)/C(=C\c3cc(C)n(Cc4ccccc4)c3C)C(=O)N=C2S1 | > 35 µM (inactive)
COc1ccccc1NC(c1cccnc1)c1ccc2cccnc2c1O (stereo not given) | 25.9 µM
O=C(NCCc1ccccc1)c1cc2sccc2n1Cc1ccccc1 | > 35 µM (inactive)
CCCC(=O)NC(c1ccc(Cl)cc1)c1ccc2cccnc2c1O (stereo not given) | 2.22 µM
Cc1cc(NC(=O)CCN2C(=O)/C(=C\c3ccccc3)SC2=S)no1 | 34.4 µM
O=C(CCc1nnc(-c2ccccc2)o1)c1ccc(Cl)cc1 | > 35 µM (inactive)
O=C(NCCc1ccccc1)C1CCN(S(=O)(=O)c2ccc(-n3cnnn3)cc2)CC1 | > 35 µM (inactive)
O=[N+]([O-])c1ccc(N=Cc2ccc(Br)c([N+](=O)[O-])c2)cc1 | 15.4 µM
COc1ccccc1C(=O)Nc1ccccc1SC(=O)c1ccccc1OC | > 35 µM (inactive)
O=C(Nc1nc(-c2ccccn2)cs1)c1cc(Cl)ccc1[N+](=O)[O-] | 9.95 µM
CCOc1ccccc1N(CC(=O)N/N=C/c1cc(Br)ccc1OC)S(C)(=O)=O | > 35 µM (inactive)
Fc1cccc(/C=N/Nc2nccnc2Cl)c1 | > 35 µM (inactive)
O=C(CSc1nc2ccccc2c(=O)n1-c1ccccc1)NC(=O)CN1CCCC1=O | > 35 µM (inactive)
Cc1cc(Nc2ccccc2)cc(=O)n1C | > 35 µM (inactive)

Structure (SMILES) | EC50
COc1cccc(/C=N/NC(=O)c2ccc([N+](=O)[O-])cc2Cl)c1O | > 35 µM (inactive)
C(=N\Nc1nc2ccccc2[nH]1)/c1cccc2nccnc12 | 15.8 µM
CC1(C)CC(=O)C(C=NCCN2CCN(C(=S)Nc3cccc(Cl)c3)CC2)=C(O)C1 | > 35 µM (inactive)
COc1cc(C(=O)Oc2ccccc2/C=N/NC(=O)c2ccc(Cl)cc2)cc(OC)c1OC | 35.8 µM
O=C(Nc1ncccc1O)c1ccc(S(=O)(=O)Nc2ccccc2)cc1 | 9.18 µM
CC(C)N(c1ccccc1)c1ncnc(NCCC(=O)O)c1[N+](=O)[O-] | > 35 µM (inactive)
CCN(CC)CCOC(=O)C(Cc1ccco1)Cc1cccc2ccccc12 (stereo not given) | > 35 µM (inactive)
O=C(NCCCN1CCOCC1)c1cc(-c2ccccc2)on1 | 9.39 µM
COc1ccc2[nH]c(C(=O)N/N=C/c3ccc(O)cc3O)cc2c1 | 8.67 µM
O=C(CCc1ccccc1)Nc1ccnn1C1CCN(C/C=C/c2ccccc2)CC1 | > 35 µM (inactive)
COCCN=c1scc(-c2cc(OC)c(OC)c(OC)c2)n1/N=C/c1c(C)[nH]c2ccccc12 | > 35 µM (inactive)
COc1ccccc1C(=O)Oc1ccccc1C(=O)Nc1ccccc1 | > 35 µM (inactive)
Cc1ccn2cc(-c3ccc(O)c(O)c3)nc2c1 | > 35 µM (inactive)
Cc1ccc2nc(SCC(=O)Nc3ccc(Br)cc3)nc(=O)n2c1 | > 35 µM (inactive)
CN(Cc1cccs1)C(=O)CSc1nc(N)cc(N)n1 | > 35 µM (inactive)
CC1(C)CC(=O)C(CC2C(=O)CC(C)(C)CC2=O)C(=O)C1 | > 35 µM (inactive)
Cc1ccc(/C=N/NC(=O)c2c(-c3ccccc3)noc2C)c(O)c1 | 6.81 µM
COc1ccc(O)c(/C=N/NC(=S)Nc2cccc(S(=O)(=O)N(C)C)c2)c1 | > 35 µM (inactive)
Cc1cc(S(=O)(=O)ON2C(=O)c3ccccc3C2=O)ccc1F | 6.21 µM
CN1CCN(Cc2cc(COCc3ccccc3)c3cccnc3c2O)CC1 | 7.82 µM
COc1ccc(-c2csc(NNC3=NCCCCC3)n2)cc1 | 30.1 µM
Cc1cccc(CCNC(=O)Cn2ncc3c([nH]c4ccc(C)cc43)c2=O)c1 | > 35 µM (inactive)
CCOC(=O)C(=Cc1ccc(OCc2ccc([N+](=O)[O-])cc2)c(OC)c1)C(=O)OCC | 7.32 µM
Cc1occc1C(=O)N/N=C/c1c(O)ccc2ccccc12 | 11.7 µM
CCOC(=O)C(=CNc1ccc(NC2=NCC(C)S2)cc1)C(=O)OCC (stereo not given) | 8.3 µM
CC(=O)NC(c1ccc(C)cc1)c1cc(Cl)c2cccnc2c1O (stereo not given) | 16.6 µM
O=C(N/N=C/c1cc(Br)ccc1O)C(=O)Nc1ccccc1OC(F)(F)C(F)F | 35.2 µM

Structure (SMILES) | EC50
C=CCOc1nc(-c2ccccc2Cl)nc2ccccc12 | > 35 µM (inactive)
CC(C)=NOC(=O)c1c(C)noc1-c1snnc1C | > 35 µM (inactive)
CCCCN(C(=O)c1c(C)[nH]c(C(=O)OCC)c1C)c1ccccc1 | > 35 µM (inactive)
COc1ccc(C(=O)Nc2ccccc2C(=O)N/N=C/c2ccccn2)cc1OC | 10.6 µM
CC(=O)c1cccc(N(C(=O)c2ccccn2)C(C(=O)NC2CCCCC2)c2ccccc2)c1 (stereo not given) | > 35 µM (inactive)
Cc1ccc(Nc2c(-c3ccccn3)nc3cc(C)ccn23)cc1 | 5.51 µM
C/C(=N\O)C(=O)Nc1ccccc1 | > 35 µM (inactive)
C[C@@H](C(=O)Nc1ccc2c(c1)OCCO2)n1c(=O)[nH]c2ccccc2c1=O | > 35 µM (inactive)
O=Cc1cc(N=Nc2ccccc2Cl)ccc1O | > 35 µM (inactive)
Cc1ccc(C(=O)Nc2ccc3c(c2)nc(CCNC(=O)c2ccco2)n3C)cc1 | > 35 µM (inactive)
c1ccc(OCc2nc(-c3ccncc3)no2)cc1 | > 35 µM (inactive)
FC(F)(F)c1ccc(-c2nc(=S)[nH][nH]2)cc1 | > 35 µM (inactive)
Cc1ccccc1CN1C(=O)CSc2ccc(C(=O)N3CCOCC3)cc21 | > 35 µM (inactive)
Cc1ccc(-c2cc(C(=O)Nc3cccnc3)[nH]n2)c(O)c1C | > 35 µM (inactive)
Cc1cc(C)c2c(N)c3ccccc3nc2n1 | 17.4 µM
COc1cccc(C(=O)SC2=NCCS2)c1 | > 35 µM (inactive)
O=C(NC(=S)Nc1ccccn1)c1cccc([N+](=O)[O-])c1 | > 35 µM (inactive)
CC1=NC(C#N)=C(C#N)NC(C)(C)C1 | > 35 µM (inactive)
COc1ccc2oc(C(=O)OCC(=O)Nc3ccccc3OC)c(C)c2c1 | > 35 µM (inactive)
O=C(N/N=C(\Cc1ncc[nH]1)c1ccccc1)c1ccccc1 | > 35 µM (inactive)
COc1ccc2ccccc2c1/C=N/Nc1cccc(C(=O)O)c1 | > 35 µM (inactive)
COc1cccc(C(=O)C2CCCN(Cc3ccc4nsnc4c3)C2)c1 (stereo not given) | > 35 µM (inactive)
Cc1cc(-c2nnnn2-c2cc(Cl)cc(Cl)c2)no1 | > 35 µM (inactive)
Cc1cccc(C(=O)O/N=C(\N)c2ccc(Cl)cc2)c1 | > 35 µM (inactive)
COc1ccccc1N1CCN(Cc2ccc(O)c3ncccc23)CC1 | 5.41 µM
Cc1ccsc1C(=O)N/N=C/c1ccc([N+](=O)[O-])cc1 | > 35 µM (inactive)
O=C1CC(Nc2ccccc2)C(=O)N1Cc1ccccc1 (stereo not given) | > 35 µM (inactive)

Structure (SMILES) | EC50
Cc1ccc(S(=O)(=O)c2nc(-c3ccccc3Cl)oc2N(C)C)cc1 | > 35 µM (inactive)
O=C(Nc1ncc2c(n1)CC(c1ccco1)CC2=O)c1ccccc1 (stereo not given) | > 35 µM (inactive)
CCCCOC(=O)c1ccc(NC(=S)NC(=O)c2c(Br)c(C)nn2C)cc1 | > 35 µM (inactive)
N/C(=N\OC(=O)C(c1ccccc1)c1ccccc1)c1cccnc1 | > 35 µM (inactive)
COc1ccc(CN2CCNC(=O)C2CC(=O)N(C)CC2CCOCC2)cc1OC (stereo not given) | > 35 µM (inactive)
ONC=Nc1cccc2nonc12 | > 35 µM (inactive)
Cn1c(SCC(=O)c2ccccc2)nnc1-c1ccco1 | > 35 µM (inactive)
CC(=O)NC(c1ccc2ccccc2c1)c1ccc2cccnc2c1O (stereo not given) | 8.56 µM
CCOc1ccc(N2CC(C(=O)Nc3ccccc3C(=O)NC3CC3)CC2=O)cc1 (stereo not given) | > 35 µM (inactive)
O=C(O)c1cccc(-n2cccc2/C=C2/SC(=O)N(CC(=O)N3CCCC3)C2=O)c1 | > 35 µM (inactive)
C/C(=N\NC(=O)Cc1ccc(Br)cc1)c1cccnc1 | > 35 µM (inactive)
O=C(CCc1ccccc1)NC(c1cccs1)c1cc(Cl)c2cccnc2c1O (stereo not given) | 35.2 µM
COc1ccc(S(=O)(=O)N2CCOC2CNC(=O)C(=O)NCc2ccc3c(c2)OCO3)cc1OC (stereo not given) | > 35 µM (inactive)
COc1cccc(/C=N/Nc2cc(-n3nc(C)cc3-c3ccccc3)ncn2)c1O | 12.5 µM
COc1ccccc1-c1cc(C(F)(F)F)nc(S(C)(=O)=O)n1 | 18 µM
O=C(/C=C/c1ccco1)Oc1cc(Br)cc(/C=N/NC(=O)c2ccccc2O)c1 | 5.43 µM
Cc1ccc(C(=O)NC(=S)NNS(=O)(=O)c2ccc(C)cc2)cc1 | > 35 µM (inactive)
CC(C)c1ccc(NC(=O)CCc2ccccc2)cc1 | > 35 µM (inactive)
Oc1c(C(Nc2nc3ccccc3s2)c2ccco2)ccc2cccnc12 (stereo not given) | 7.1 µM
O=C(c1cc(Br)ccc1Cl)N1CCC2(CC1)OCCO2 | > 35 µM (inactive)
O=C(Cn1nc(-c2ccccc2Cl)ccc1=O)Nc1ccccc1-c1ccccc1 | > 35 µM (inactive)
CCOc1cc(N2CCOCC2)c(OCC)cc1NC(C)C(=O)N1CCC(C)CC1 (stereo not given) | > 35 µM (inactive)
Cc1cccc(OCCn2cccc2/C=C2/C(=O)NC(=O)N(Cc3ccco3)C2=O)c1 | > 35 µM (inactive)
Cc1ccc(Cl)cc1N1CCN(CC(O)COCc2ccco2)CC1 (stereo not given) | > 35 µM (inactive)
